Assay results: patent US11179412B2, “Methods of treating conditions involving elevated inflammatory response” (University of Pittsburgh—Of the Commonwealth System of …, priority 2017, dated 2021)
Where a name gives a salt, the structure may show the parent alone.

System: STING activation (IFNβ release) in iBMDMs
Assay: IFNβ release ELISA after STING ligand (or LPS) stimulation, iBMDMs
Assay type: cell-based, mouse
Settings: iBMDMs, 3′3′-cGAMP 10 μg/ml, 16 hours, compound 10 μM
Procedure, shortened: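 IFNβ released into the medium was quantified by ELISA (mouse or human kit) after iBMDM stimulation with the canonical STING agonist 3′3′-cGAMP or with LPS.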

C=CC(=O)N1CCC[C@@H](n2nc(-c3ccc(Oc4ccccc4)cc3)c3c(N)ncnc32)C1 [Ibrutinib (PCI-32765), Ibrutinib]
fold increase in IFN-β release: 0.53 fold

C#Cc1cccc(Nc2ncnc3cc4c(cc23)OCCOCCOCCO4)c1 [Icotinib]
fold increase in IFN-β release: 0.57 fold

CNC(=O)[C@H](Cc1c[nH]c2ccccc12)NC(=O)[C@@H](CC(=O)NO)CC(C)C [Ilomastat (GM6001, Galardin), Ilomastat]
fold increase in IFN-β release: 1.81 fold

Cc1ccc(NC(=O)c2ccc(CN3CCN(C)CC3)cc2)cc1Nc1nccc(-c2cccnc2)n1 [Imatinib (STI571), Imatinib]
fold increase in IFN-β release: 1.04 fold

CCOC(=O)[C@H](CCc1ccccc1)N[C@@H](C)C(=O)N1C(=O)N(C)C[C@H]1C(=O)O [Imidapril HCl]
fold increase in IFN-β release: 3.20 fold

NC(=O)c1ccc(I)c([N+](=O)[O-])c1 [Iniparib (BSI-201), Iniparib]
fold increase in IFN-β release: 0.23 fold

CCc1c2c(nc3ccc(OC(=O)N4CCC(N5CCCCC5)CC4)cc13)-c1cc3c(c(=O)n1C2)COC(=O)[C@]3(O)CC [Irinotecan HCl Trihydrate]
fold increase in IFN-β release (HCl Trihydrate): 0.51 fold

CCc1c2c(nc3ccc(OC(=O)N4CCC(N5CCCCC5)CC4)cc13)-c1cc3c(c(=O)n1C2)COC(=O)[C@]3(O)CC [Irinotecan]
fold increase in IFN-β release: 1.13 fold

CC1=C(/C=C/C(C)=C/C=C/C(C)=C\C(=O)O)C(C)(C)CCC1 [Isotretinoin]
fold increase in IFN-β release: 0.10 fold

Cc1ccc(C(=O)N(CCCN)[C@@H](c2nc3cc(Cl)ccc3c(=O)n2Cc2ccccc2)C(C)C)cc1 [Ispinesib (SB-715992), Ispinesib]
fold increase in IFN-β release: 2.12 fold

CCn1c(=O)c2c(nc(/C=C/c3ccc(OC)c(OC)c3)n2C)n(CC)c1=O [Istradefylline]
fold increase in IFN-β release: 1.90 fold

CC(C)(C)c1cc(C(C)(C)C)c(NC(=O)c2c[nH]c3ccccc3c2=O)cc1O [Ivacaftor (VX-770), Ivacaftor]
fold increase in IFN-β release: 1.27 fold

O=C(Nc1ccccc1)N1CCN(c2nc(-c3ccccc3)ns2)CC1 [JNJ-1661010]
fold increase in IFN-β release: 1.03 fold

N#Cc1c(NC(=O)c2cccc3ccccc23)sc2c1CCCC2 [JNK Inhibitor IX]
fold increase in IFN-β release: 0.53 fold

Cc1ccc(NCCCc2ccccc2)c(N)c1 [JSH-23]
fold increase in IFN-β release: 2.80 fold

COc1cc(-c2ncn(/C=C\C(=O)OC(C)C)n2)cc(C(F)(F)F)c1 [KPT-185]
fold increase in IFN-β release: 0.59 fold

O=C(/C=C\n1cnc(-c2cc(C(F)(F)F)cc(C(F)(F)F)c2)n1)N1CC(F)(F)C1 [KPT-276]
fold increase in IFN-β release: 0.54 fold

O=c1cc(-c2cccc3c2Sc2ccccc2S3)oc(N2CCOCC2)c1 [KU-55933 (ATM Kinase Inhibitor)]
fold increase in IFN-β release: 0.33 fold

COC(=O)CCSCc1ccc(-c2onc(C)c2NC(=O)OC(C)c2ccccc2Cl)cc1 (stereo not drawn) [Ki16198]
fold increase in IFN-β release: 0.51 fold

Cc1noc(-c2ccc(CSCCC(=O)O)cc2)c1NC(=O)OC(C)c1ccccc1Cl (stereo not drawn) [Ki16425]
fold increase in IFN-β release: 1.41 fold

O=C(c1cn(Cc2cncn2Cc2ccc(Br)cc2)cc1-c1cccc2ccccc12)N1CCOCC1 [LB42708]
fold increase in IFN-β release: 1.35 fold

COc1ccccc1-c1cc(Nc2cccc(CS(N)(=O)=O)c2)ncn1 [LDC000067]
fold increase in IFN-β release: 1.43 fold

Cc1c(C(=O)Nc2ccc(N3C[C@@H](C)O[C@@H](C)C3)nc2)cccc1-c1ccc(OC(F)(F)F)cc1 [LDE225 (NVP-LDE225, Erismodegib), Erismodegib]
fold increase in IFN-β release: 1.31 fold

c1cc(-c2cnn3cc(-c4ccc(N5CCNCC5)cc4)cnc23)c2cccnc2c1 [LDN-212854]
fold increase in IFN-β release: 0.33 fold

C[C@H](NC(=O)[C@@H](O)c1cc(F)cc(F)c1)C(=O)N[C@@H]1C(=O)N(C)c2ccccc2-c2ccccc21 [LY411575]
fold increase in IFN-β release: 0.26 fold

Cc1cccc(-c2nn3c(c2-c2ccnc4ccc(C(N)=O)cc24)CCC3)n1 [LY2157299]
fold increase in IFN-β release: 2.50 fold

CC(C)(C)Cn1c(N)nc2ccc(-c3[nH]c(C(C)(C)C)nc3-c3ccc(F)cc3)nc21 [LY2228820]
fold increase in IFN-β release: 5.15 fold

Cc1cnc(NC(=O)Nc2cc(Br)c(C)cc2OC[C@@H]2CNCCO2)cn1 [LY2603618]
fold increase in IFN-β release: 1.08 fold

Cc1cc(Nc2cc(CN3CCOCC3)c3nc(C)c(Cc4ccc(Cl)cc4F)n3n2)n[nH]1 [LY2784544]
fold increase in IFN-β release: 2.09 fold

CC(CCc1ccccc1)NCC(O)c1ccc(O)c(C(N)=O)c1 (stereo not drawn) [Labetalol HCl]
fold increase in IFN-β release: 2.96 fold

O=C(C[S+]([O-])Cc1ccco1)NC/C=C\COc1cc(CN2CCCCC2)ccn1 (stereo not drawn) [Lafutidine]
fold increase in IFN-β release: 2.85 fold

Nc1cccc2c1CN(C1CCC(=O)NC1=O)C2=O (stereo not drawn) [Lenalidomide (CC-5013), Lenalidomide]
fold increase in IFN-β release: 1.09 fold

N#Cc1ccc(C(c2ccc(C#N)cc2)n2cncn2)cc1 [Letrozole]
fold increase in IFN-β release: 0.61 fold

CCN1CCC[C@H]1CNC(=O)c1cc(S(N)(=O)=O)ccc1OC [Levosulpiride]
fold increase in IFN-β release: 1.91 fold

CCN(CC)CC(=O)Nc1c(C)cccc1C [Lidocaine]
3′3′-cGAMP-induced IFNβ release: promoted
fold increase in IFN-β release: 9.58 fold

CC#CCn1c(N2CCC[C@@H](N)C2)nc2c1c(=O)n(Cc1nc(C)c3ccccc3n1)c(=O)n2C [Linagliptin]
fold increase in IFN-β release: 2.07 fold

Nc1nc(OCc2cc(Br)cs2)c2[nH]cnc2n1 [Lomeguatrib]
fold increase in IFN-β release: 1.27 fold

CCOC(=O)N1CCC(=C2c3ccc(Cl)cc3CCc3cccnc32)CC1 [Loratadine]
fold increase in IFN-β release: 3.65 fold

CCCCc1nc(Cl)c(CO)n1Cc1ccc(-c2ccccc2-c2nn[nH]n2)cc1 [Losartan Potassium (DuP 753), Losartan Potassium]
fold increase in IFN-β release: 1.35 fold

Cc1c(F)cc(C(=O)NC2CC2)cc1-c1ccc(C(=O)NCC(C)(C)C)cn1 [Losmapimod (GW856553X), Losmapimod]
fold increase in IFN-β release: 1.20 fold

CC[C@H](C)C(=O)O[C@H]1C[C@@H](C)C=C2C=C[C@H](C)[C@H](CC[C@@H]3C[C@@H](O)CC(=O)O3)[C@H]21 [Lovastatin]
fold increase in IFN-β release: 1.22 fold

CC(C)CCNC(=O)[C@H](CC(C)C)NC(=O)[C@H]1O[C@@H]1C(=O)O [Loxistatin Acid (E-64C), Loxistatin Acid]
fold increase in IFN-β release: 0.70 fold

C=CCn1c(=O)c2cnc(Nc3ccc(N4CCN(C)CC4)cc3)nc2n1-c1cccc(C(C)(C)O)n1 [MK-1775]
fold increase in IFN-β release: 4.54 fold

Cl.Cl.NC1(c2ccc(-c3nc4ccn5c(=O)[nH]nc5c4cc3-c3ccccc3)cc2)CCC1 [MK-2206 2HCl]
fold increase in IFN-β release: 1.02 fold

C[C@](O)(COc1ccc(C#N)cc1)C(=O)Nc1ccc(C#N)c(C(F)(F)F)c1 [MK-2866 (GTx-024)]
fold increase in IFN-β release: 1.47 fold

O=C(O)Cn1nnc(-c2cc(N3CCC(Oc4cc(F)ccc4Br)CC3)no2)n1 [MK-8245]
fold increase in IFN-β release: 0.42 fold

COc1ccc(CNCc2cccc3ccccc23)cc1.Cl [ML133 HCl]
fold increase in IFN-β release: 0.59 fold

CCCC(=O)Nc1cccc(NC(=O)c2ccccc2Br)c1 [ML161]
fold increase in IFN-β release: 0.95 fold

Cc1cnc(-c2ccccc2C(C)C)nc1NCc1ccc(-n2ccnn2)cc1 [ML323]
fold increase in IFN-β release: 0.43 fold

COc1ccc(-c2cnc3c(-c4cccc5ncccc45)cnn3c2)cc1 [ML347]
fold increase in IFN-β release: 1.95 fold

CC(C)C[C@H](NC(=O)CNC(=O)c1cc(Cl)ccc1Cl)B(O)O [MLN2238]
fold increase in IFN-β release: 4.76 fold

O=C(O)c1ccc(Nc2ncc3c(n2)-c2ccc(Cl)cc2C(c2c(F)cccc2F)=NC3)cc1 [MLN8054]
fold increase in IFN-β release: 0.77 fold

CCC(CC)(NC(=O)C(C)C)C(=O)N[C@@H](CCCN=C(N)N)C(=O)NC1(C(=O)NC(c2ccc(F)cc2)c2ccc(F)cc2)CCCC1 [MM-102]
fold increase in IFN-β release: 2.32 fold

S=C=Nc1cccc(NC(=S)NCCCCNC(=S)Nc2cccc(N=C=S)c2)c1 [MRS 2578]
fold increase in IFN-β release: 1.31 fold

COc1cc(-n2c(=S)[nH]c3ccccc3c2=O)c(Cl)cc1Cl [Mdivi-1]
fold increase in IFN-β release: 2.10 fold

CC12CC3CC(C)(C1)CC(N)(C3)C2 [Memantine HCl]
fold increase in IFN-β release: 2.60 fold

CN(Cc1cnc2nc(N)nc(N)c2n1)c1ccc(C(=O)N[C@@H](CCC(=O)O)C(=O)O)cc1 [Methotrexate]
fold increase in IFN-β release: 0.68 fold

CCN(CC)CCNC(=O)c1cc(Cl)c(N)cc1OC [MetoclopraMide HCl]
fold increase in IFN-β release: 2.14 fold

Nc1nc(CC(=O)Nc2ccc(CCNC[C@H](O)c3ccccc3)cc2)cs1 [Mirabegron]
fold increase in IFN-β release: 0.69 fold

O=C(NCCN1CCOCC1)c1ccc(Cl)cc1 [Moclobemide (Ro 111163), Moclobemide]
fold increase in IFN-β release: 1.88 fold

FC(F)(F)c1ccc(/C=C/c2nc(COc3ccc(CCCCn4ccnn4)cc3)co2)cc1 [Mubritinib (TAK 165), Mubritinib]
fold increase in IFN-β release: 0.56 fold

Cc1cc(C(N)=O)ccc1-n1c(CCC(=O)O)ccc1-c1ccc(-n2ccnc2)cc1 [N6022]
fold increase in IFN-β release: 0.75 fold

CCCCCCCCCCCCCCCCn1cc[n+](Cc2ccccc2)c1C.[I-] [NH125]
fold increase in IFN-β release: 0.11 fold

Cc1cc(OCc2nnc(SC3CCCC3)n2-c2cccnc2)ccc1-c1ccc(S(C)(=O)=O)cc1 [NMS-873]
fold increase in IFN-β release: 1.90 fold

CN1CCN(c2ccc(OC(F)(F)F)c(Nc3ncc4c(n3)-c3c(c(C(N)=O)nn3CCO)CC4)c2)CC1 [NMS-P937 (NMS1286937)]
fold increase in IFN-β release: 0.73 fold

CC(C)(Cc1ccc2ccccc2c1)NC[C@@H](O)COc1cccc(Cl)c1C#N [NPS-2143]
fold increase in IFN-β release: 0.99 fold

Cc1ccc(S(=O)(=O)c2ccc([N+](=O)[O-])o2)cc1 [NSC697923]
fold increase in IFN-β release: 0.51 fold

CCN(CC)CCCC(C)Nc1nc(C)cc(Nc2ccc3nc(C)cc(N)c3c2)n1 (stereo not drawn) [NSC 23766]
fold increase in IFN-β release: 1.30 fold
